# Measured values published in patent publication US12258328B2, “6-membered heteroaryl-containing aminopyridine compounds as EGFR inhibitors” (YUHAN CORPORATION, priority 2021, dated 2025).
# Read-outs that look alike come from different tables or passages of the source.
# Key:
# EGFR del19/T790M/C797S = EGFR del19/T790M/C797S (Homo sapiens, UniProt P00533, C797S/DEL746-750/T790M); assay: Biochemical EGFR kinase assay (Lance Ultra TR-FRET), triple mutant del19/T790M/C797S
# Outline: (§1)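 Step 1: compound in kinase buffer, 0.003–10 μM. Step 2: kinase reaction 1 h at room temperature. Step 4: TR-FRET read at 615/665 nm; IC50 calculated.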
# EGFR L858R/T790M/C797S = EGFR L858R/T790M/C797S (Homo sapiens, UniProt P00533, C797S/L858R/T790M); assay: Biochemical EGFR kinase assay (Lance Ultra TR-FRET), triple mutant L858R/T790M/C797S
# Outline: as §1
# EGFR del19/C797S = EGFR del19/C797S (Homo sapiens, UniProt P00533, C797S/DEL746-750); assay: Biochemical EGFR kinase assay (Lance Ultra TR-FRET), double mutant del19/C797S
# Outline: as §1
# EGFR L858R/C797S = EGFR L858R/C797S (Homo sapiens, UniProt P00533, C797S/L858R); assay: Biochemical EGFR kinase assay (Lance Ultra TR-FRET), double mutant L858R/C797S
# Outline: as §1
# EGFR wildtype = EGFR wildtype (Homo sapiens, UniProt P00533); assay: Biochemical EGFR kinase assay (Lance Ultra TR-FRET), wildtype
# Outline: as §1
# [1] = IC50 del19/T790M/C797S (nM) 100 μM ATP, 100 μM ATP
# [2] = IC50 L858R/T790M/C797S (nM) 100 μM ATP, 100 μM ATP
# [3] = IC50 del19/C797S (nM) 100 μM ATP, 100 μM ATP
# [4] = IC50 L858R/C797S (nM) 100 μM ATP, 100 μM ATP
# [5] = IC50 WT (nM) 100 μM ATP, 100 μM ATP
# [6] = Km ATP, read-out: IC50 del19/T790M/C797S (nM) Km ATP
# [7] = Km ATP, read-out: IC50 L858R/T790M/C797S (nM) Km ATP
# [8] = Km ATP, read-out: IC50 del19/C797S (nM) Km ATP
# [9] = Km ATP, read-out: IC50 L858R/C797S (nM) Km ATP
# [10] = Km ATP, read-out: IC50 WT (nM) Km ATP
# [11] = ATP at Km, read-out: IC50 del19/T790M/C797S, Km ATP
# [12] = ATP at Km, read-out: IC50 L858R/T790M/C797S, Km ATP
# [13] = ATP at Km, read-out: IC50 del19/C797S, Km ATP
# [14] = ATP at Km, read-out: IC50 L858R/C797S, Km ATP
# [15] = ATP at Km, read-out: IC50 WT, Km ATP
# [16] = IC50 del19/T790M/C797S, 100 μM ATP
# [17] = IC50 L858R/T790M/C797S, 100 μM ATP
# EGFR del19/C797S, sequence (P00533 with tags, fused parts or gaps DEL746-750/C797S): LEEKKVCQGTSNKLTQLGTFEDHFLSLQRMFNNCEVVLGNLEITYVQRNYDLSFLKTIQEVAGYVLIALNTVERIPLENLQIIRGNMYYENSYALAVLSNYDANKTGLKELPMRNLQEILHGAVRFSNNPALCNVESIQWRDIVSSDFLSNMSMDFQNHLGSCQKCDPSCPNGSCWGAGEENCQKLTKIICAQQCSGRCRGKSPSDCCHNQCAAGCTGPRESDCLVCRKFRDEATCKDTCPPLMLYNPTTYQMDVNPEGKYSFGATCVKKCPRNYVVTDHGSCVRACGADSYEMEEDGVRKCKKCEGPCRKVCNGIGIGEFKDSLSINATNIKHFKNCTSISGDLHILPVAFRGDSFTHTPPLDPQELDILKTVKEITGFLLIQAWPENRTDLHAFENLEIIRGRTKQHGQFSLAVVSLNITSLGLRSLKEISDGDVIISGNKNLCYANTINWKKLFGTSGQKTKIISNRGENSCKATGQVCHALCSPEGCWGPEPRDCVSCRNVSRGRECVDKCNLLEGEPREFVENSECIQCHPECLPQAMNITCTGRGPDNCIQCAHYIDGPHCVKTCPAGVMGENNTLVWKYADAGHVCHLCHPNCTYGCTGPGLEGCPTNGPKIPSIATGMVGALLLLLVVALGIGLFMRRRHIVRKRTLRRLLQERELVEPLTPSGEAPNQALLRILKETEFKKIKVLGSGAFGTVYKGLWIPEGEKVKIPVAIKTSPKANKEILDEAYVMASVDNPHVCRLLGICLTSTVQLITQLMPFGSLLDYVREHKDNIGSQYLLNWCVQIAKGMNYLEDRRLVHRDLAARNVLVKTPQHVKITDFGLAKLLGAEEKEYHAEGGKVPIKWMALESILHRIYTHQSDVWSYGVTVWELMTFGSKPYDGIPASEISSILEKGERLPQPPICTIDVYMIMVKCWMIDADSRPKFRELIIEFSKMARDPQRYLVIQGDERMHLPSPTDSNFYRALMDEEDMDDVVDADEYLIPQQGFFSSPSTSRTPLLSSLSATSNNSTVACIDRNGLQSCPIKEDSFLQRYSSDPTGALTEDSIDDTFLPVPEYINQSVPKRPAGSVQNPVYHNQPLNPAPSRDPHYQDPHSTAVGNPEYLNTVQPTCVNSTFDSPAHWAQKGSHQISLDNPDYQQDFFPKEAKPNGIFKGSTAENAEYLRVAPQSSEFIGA
# EGFR wildtype, sequence (P00533 25-1210): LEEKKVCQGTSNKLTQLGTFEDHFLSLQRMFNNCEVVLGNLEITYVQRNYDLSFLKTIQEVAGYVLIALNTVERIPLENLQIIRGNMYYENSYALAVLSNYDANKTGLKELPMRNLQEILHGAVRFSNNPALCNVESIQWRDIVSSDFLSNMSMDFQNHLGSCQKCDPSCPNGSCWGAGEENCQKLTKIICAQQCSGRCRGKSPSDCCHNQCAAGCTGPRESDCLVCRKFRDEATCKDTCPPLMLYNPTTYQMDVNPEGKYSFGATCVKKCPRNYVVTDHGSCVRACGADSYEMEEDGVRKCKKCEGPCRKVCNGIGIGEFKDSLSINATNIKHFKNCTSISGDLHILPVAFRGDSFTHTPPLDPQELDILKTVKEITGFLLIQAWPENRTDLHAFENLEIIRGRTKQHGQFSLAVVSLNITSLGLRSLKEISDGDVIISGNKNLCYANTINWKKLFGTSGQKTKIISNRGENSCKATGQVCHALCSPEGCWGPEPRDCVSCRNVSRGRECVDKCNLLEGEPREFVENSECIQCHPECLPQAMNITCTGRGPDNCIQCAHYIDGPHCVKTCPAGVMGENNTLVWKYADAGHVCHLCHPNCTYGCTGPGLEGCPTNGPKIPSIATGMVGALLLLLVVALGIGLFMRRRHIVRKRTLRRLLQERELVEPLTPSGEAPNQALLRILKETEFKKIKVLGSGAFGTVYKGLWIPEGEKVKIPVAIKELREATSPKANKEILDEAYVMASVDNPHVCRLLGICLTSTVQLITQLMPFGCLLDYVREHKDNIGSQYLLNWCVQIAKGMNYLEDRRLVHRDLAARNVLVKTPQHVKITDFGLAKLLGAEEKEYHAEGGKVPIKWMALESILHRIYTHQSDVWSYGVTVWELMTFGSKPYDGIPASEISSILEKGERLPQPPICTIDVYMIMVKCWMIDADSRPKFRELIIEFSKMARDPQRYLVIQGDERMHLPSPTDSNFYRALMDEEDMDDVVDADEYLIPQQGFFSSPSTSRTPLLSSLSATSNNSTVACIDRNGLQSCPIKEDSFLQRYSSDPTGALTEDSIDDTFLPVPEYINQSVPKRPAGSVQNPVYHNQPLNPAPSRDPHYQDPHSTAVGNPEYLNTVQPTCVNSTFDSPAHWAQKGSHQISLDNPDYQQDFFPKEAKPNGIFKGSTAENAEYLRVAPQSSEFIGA
# EGFR L858R/C797S, sequence (P00533 25-1210 C797S/L858R): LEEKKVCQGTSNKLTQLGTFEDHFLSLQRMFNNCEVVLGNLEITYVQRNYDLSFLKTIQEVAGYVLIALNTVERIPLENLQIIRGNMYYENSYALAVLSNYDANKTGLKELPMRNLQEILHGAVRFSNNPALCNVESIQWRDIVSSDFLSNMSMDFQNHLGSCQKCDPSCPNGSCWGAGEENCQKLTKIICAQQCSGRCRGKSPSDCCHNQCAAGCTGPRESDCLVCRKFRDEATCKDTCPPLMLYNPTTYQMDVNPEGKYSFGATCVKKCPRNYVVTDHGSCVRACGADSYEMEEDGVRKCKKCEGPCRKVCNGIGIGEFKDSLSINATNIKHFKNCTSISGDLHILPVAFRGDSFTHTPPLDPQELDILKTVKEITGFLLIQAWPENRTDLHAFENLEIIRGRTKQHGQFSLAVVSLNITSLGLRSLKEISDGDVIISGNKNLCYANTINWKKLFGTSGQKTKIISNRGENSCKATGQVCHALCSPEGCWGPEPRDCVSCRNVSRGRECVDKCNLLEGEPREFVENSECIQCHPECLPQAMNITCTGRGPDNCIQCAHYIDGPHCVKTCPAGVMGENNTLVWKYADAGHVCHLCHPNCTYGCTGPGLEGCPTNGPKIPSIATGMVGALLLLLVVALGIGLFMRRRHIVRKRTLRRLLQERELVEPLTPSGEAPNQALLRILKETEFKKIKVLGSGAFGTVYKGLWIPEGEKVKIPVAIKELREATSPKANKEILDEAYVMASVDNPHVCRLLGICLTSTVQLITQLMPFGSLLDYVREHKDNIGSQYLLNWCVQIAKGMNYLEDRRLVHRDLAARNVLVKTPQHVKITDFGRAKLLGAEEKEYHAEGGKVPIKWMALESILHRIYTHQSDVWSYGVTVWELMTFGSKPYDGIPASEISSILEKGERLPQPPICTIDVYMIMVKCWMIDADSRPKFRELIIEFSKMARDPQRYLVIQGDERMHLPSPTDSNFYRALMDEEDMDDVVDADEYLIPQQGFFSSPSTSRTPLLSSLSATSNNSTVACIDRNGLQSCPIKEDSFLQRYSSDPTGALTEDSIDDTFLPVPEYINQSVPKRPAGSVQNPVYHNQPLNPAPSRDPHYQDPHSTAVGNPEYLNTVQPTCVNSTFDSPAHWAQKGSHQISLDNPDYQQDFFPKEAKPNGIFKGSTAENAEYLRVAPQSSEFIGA
# EGFR del19/T790M/C797S, sequence (P00533 with tags, fused parts or gaps DEL746-750/T790M/C797S): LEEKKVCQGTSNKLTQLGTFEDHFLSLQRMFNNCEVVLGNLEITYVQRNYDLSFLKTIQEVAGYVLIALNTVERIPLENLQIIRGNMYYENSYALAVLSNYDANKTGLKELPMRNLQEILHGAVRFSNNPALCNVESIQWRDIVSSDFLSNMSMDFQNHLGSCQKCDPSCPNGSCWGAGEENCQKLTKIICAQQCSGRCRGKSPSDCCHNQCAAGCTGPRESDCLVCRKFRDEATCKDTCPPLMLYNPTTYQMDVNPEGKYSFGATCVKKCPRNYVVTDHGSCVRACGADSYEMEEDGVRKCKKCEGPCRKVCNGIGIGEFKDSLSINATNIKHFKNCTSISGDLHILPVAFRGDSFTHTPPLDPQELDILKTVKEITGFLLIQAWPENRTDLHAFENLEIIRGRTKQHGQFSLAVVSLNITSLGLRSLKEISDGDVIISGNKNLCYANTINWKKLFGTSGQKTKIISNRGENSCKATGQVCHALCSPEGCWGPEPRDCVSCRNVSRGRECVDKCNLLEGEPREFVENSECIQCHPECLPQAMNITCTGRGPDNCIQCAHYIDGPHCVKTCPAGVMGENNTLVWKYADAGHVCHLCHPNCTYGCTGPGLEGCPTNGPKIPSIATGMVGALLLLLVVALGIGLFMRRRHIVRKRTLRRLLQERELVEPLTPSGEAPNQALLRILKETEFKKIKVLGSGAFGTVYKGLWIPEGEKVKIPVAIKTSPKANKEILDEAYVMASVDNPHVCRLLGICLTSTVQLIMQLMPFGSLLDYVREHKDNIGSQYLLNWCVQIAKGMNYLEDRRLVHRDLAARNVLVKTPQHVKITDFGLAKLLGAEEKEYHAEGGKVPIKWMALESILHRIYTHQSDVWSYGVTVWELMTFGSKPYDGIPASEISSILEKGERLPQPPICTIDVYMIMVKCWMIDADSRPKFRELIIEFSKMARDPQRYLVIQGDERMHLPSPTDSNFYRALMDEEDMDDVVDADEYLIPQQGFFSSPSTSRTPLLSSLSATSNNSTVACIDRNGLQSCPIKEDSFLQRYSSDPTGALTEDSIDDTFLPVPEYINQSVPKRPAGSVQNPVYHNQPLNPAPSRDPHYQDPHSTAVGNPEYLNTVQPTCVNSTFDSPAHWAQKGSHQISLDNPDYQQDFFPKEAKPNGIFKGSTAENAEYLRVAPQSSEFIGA
Structure (SMILES),IC50 (EGFR del19/T790M/C797S; [1]),IC50 (EGFR L858R/T790M/C797S; [2]),IC50 (EGFR del19/C797S; [3]),IC50 (EGFR L858R/C797S; [4]),IC50 (EGFR wildtype; [5]),IC50 (EGFR del19/T790M/C797S; [6]),IC50 (EGFR L858R/T790M/C797S; [7]),IC50 (EGFR del19/C797S; [8]),IC50 (EGFR L858R/C797S; [9]),IC50 (EGFR wildtype; [10]),IC50 (EGFR del19/T790M/C797S; [11]),IC50 (EGFR L858R/T790M/C797S; [12]),IC50 (EGFR del19/C797S; [13]),IC50 (EGFR L858R/C797S; [14]),IC50 (EGFR wildtype; [15]),IC50 (EGFR del19/T790M/C797S; [16]),IC50 (EGFR L858R/T790M/C797S; [17]),"IC50 (EGFR del19/C797S; IC50 del19/C797S, 100 μM ATP)","IC50 (EGFR L858R/C797S; IC50 L858R/C797S, 100 μM ATP)","IC50 (EGFR wildtype; IC50 WT, 100 μM ATP)"
"CC(=O)c1cccc(-c2cnc(Nc3ccnc(-c4cnn(S(=O)(=O)C5CC5)c4)n3)cc2N[C@H]2CC[C@@](C)(O)CC2)n1 [Example 18, 1-(6′-((2-(1-(Cyclopropylsulfonyl)-1H-pyrazol-4-yl)pyrimidin-4-yl)amino)-4′-(((1s,4s)-4-hydroxy-4-methylcyclohexyl)amino)-[2,3′-bipyridin]-6-yl)ethan-1-one]",0.7 nM,3.1 nM,8.7 nM,113 nM,> 10000 nM,–,–,–,–,–,–,–,–,–,–,–,–,–,–,–
"C[C@]1(O)CC[C@@H](Nc2cc(Nc3ccnc(-c4cnn(S(=O)(=O)C5CC5)c4)n3)ncc2-c2cnc(N3CCC(F)(F)CC3)cn2)CC1 [Example 75, (1s,4s)-4-((2-((2-(1-(Cyclopropylsulfonyl)-1H-pyrazol-4-yl)pyrimidin-4-yl)amino)-5-(5-(4,4-difluoropiperidin-1-yl)pyrazin-2-yl)pyridin-4-yl)amino)-1-methylcyclohexan-1-ol]",15.2 nM,15.2 nM,33.2 nM,313 nM,> 10000 nM,8.7 nM,6.6 nM,34 nM,68.9 nM,143 nM,–,–,–,–,–,–,–,–,–,–
"O=S(=O)(C1CC1)n1cc(-c2nccc(Nc3cc(NC4CCC(F)(F)CC4)c(-c4ccc(N5CCC(F)(F)CC5)nn4)cn3)n2)cn1 [Example 268, N^2-(2-(1-(Cyclopropylsulfonyl)-1H-pyrazol-4-yl)pyrimidin-4-yl)-N^4-(4,4-difluorocyclohexyl)-5-(6-(4,4-difluoropiperidin-1-yl)pyridazin-3-yl)pyridine-2,4-diamine]",–,–,–,–,–,–,–,–,–,–,28.9 nM,22.4 nM,762 nM,1220 nM,4770 nM,–,–,–,–,–
"CN(C)S(=O)(=O)n1cc(-c2nccc(Nc3cc(NC4CCC(C)(O)CC4)c(-c4ccc(C(O)C(F)(F)F)cn4)cn3)n2)cn1 (centres unmarked) [Example 297, 4-(4-((4′-(((1s,4s)-4-Hydroxy-4-methylcyclohexyl)amino)-5-(2,2,2-trifluoro-1-hydroxyethyl)-[2,3′-bipyridin]-6′-yl)amino)pyrimidin-2-yl)-N,N-dimethyl-1H-pyrazole-1-sulfonamide]",–,–,–,–,–,–,–,–,–,–,1.6 nM,1.4 nM,4 nM,3 nM,39.9 nM,–,–,–,–,–
"CN1CCC(Oc2cnc(-c3cnc(Nc4ccnc(-c5cnn(S(=O)(=O)C6CC6)c5)n4)cc3N[C@H]3CC[C@@H](C(C)(C)O)CC3)cn2)CC1 [Example 147, 2-((1s,4s)-4-((2-((2-(1-(Cyclopropylsulfonyl)-1H-pyrazol-4-yl)pyrimidin-4-yl)amino)-5-(5-((1-methylpiperidin-4-yl)oxy)pyrazin-2-yl)pyridin-4-yl)amino)cyclohexyl)propan-2-ol]",–,–,–,–,–,0.3 nM,0.1 nM,0.4 nM,0.1 nM,2.3 nM,–,–,–,–,–,–,–,–,–,–
"CC(C)(O)[C@H]1CC[C@@H](Nc2cc(Nc3ccnc(-c4cnn(S(=O)(=O)C5CC5)c4)n3)ncc2-c2cc(OCCN3CCOCC3)ccn2)CC1 [Example 213, 2-((1s,4s)-4-((6′-((2-(1-(Cyclopropylsulfonyl)-1H-pyrazol-4-yl)pyrimidin-4-yl)amino)-4-(2-morpholinoethoxy)-[2,3′-bipyridin]-4′-yl)amino)cyclohexyl)propan-2-ol]",–,–,–,–,–,–,–,–,–,–,1.2 nM,0.8 nM,3.8 nM,1.4 nM,0.6 nM,–,1.3 nM,7.7 nM,85.4 nM,> 10000 nM
"C[C@]1(O)CC[C@@H](Nc2cc(Nc3ccnc(-c4cnn(S(=O)(=O)C5CC5)c4)n3)ncc2-c2cccnn2)CC1 [Example 42, (1s,4s)-4-((2-((2-(1-(Cyclopropylsulfonyl)-1H-pyrazol-4-yl)pyrimidin-4-yl)amino)-5-(pyridazin-3-yl)pyridin-4-yl)amino)-1-methylcyclohexan-1-ol]",0.1 nM,0.1 nM,0.2 nM,2.3 nM,1360 nM,0.1 nM,0.03 nM,0.3 nM,0.4 nM,–,–,–,–,–,–,–,–,–,–,–
"C[C@]1(O)CC[C@@H](Nc2cc(Nc3ccnc(-c4cnn(S(=O)(=O)C5CC5)c4)n3)ncc2-c2ccc(C(=O)N3CCOCC3)cn2)CC1 [Example 284, (6′-((2-(1-(Cyclopropylsulfonyl)-1H-pyrazol-4-yl)pyrimidin-4-yl)amino)-4′-(((1s,4s)-4-hydroxy-4-methylcyclohexyl)amino)-[2,3′-bipyridin]-5-yl)(morpholino)methanone]",–,–,–,–,–,–,–,–,–,–,–,–,–,–,–,0.1 nM,0.2 nM,0.2 nM,0.4 nM,176 nM
"C[C@]1(O)CC[C@@H](Nc2cc(Nc3ccnc(-c4cnn(S(=O)(=O)C5CC5)c4)n3)ncc2-c2ccc(CN3CCOCC3)cn2)CC1 [Example 32, (1s,4s)-4-((6′-((2-(1-(Cyclopropylsulfonyl)-1H-pyrazol-4-yl)pyrimidin-4-yl)amino)-5-(morpholinomethyl)-[2,3′-bipyridin]-4′-yl)amino)-1-methylcyclohexan-1-ol]",0.4 nM,0.3 nM,0.1 nM,1.9 nM,120 nM,0.2 nM,0.2 nM,0.2 nM,0.1 nM,0.3 nM,–,–,–,–,–,–,–,–,–,–

# The remaining lines, values ahead:
IC50 (EGFR del19/T790M/C797S; [1]),IC50 (EGFR L858R/T790M/C797S; [2]),IC50 (EGFR del19/C797S; [3]),IC50 (EGFR L858R/C797S; [4]),IC50 (EGFR wildtype; [5]),IC50 (EGFR del19/T790M/C797S; [6]),IC50 (EGFR L858R/T790M/C797S; [7]),IC50 (EGFR del19/C797S; [8]),IC50 (EGFR L858R/C797S; [9]),IC50 (EGFR wildtype; [10]),IC50 (EGFR del19/T790M/C797S; [11]),IC50 (EGFR L858R/T790M/C797S; [12]),IC50 (EGFR del19/C797S; [13]),IC50 (EGFR L858R/C797S; [14]),IC50 (EGFR wildtype; [15]),IC50 (EGFR del19/T790M/C797S; [16]),IC50 (EGFR L858R/T790M/C797S; [17]),"IC50 (EGFR del19/C797S; IC50 del19/C797S, 100 μM ATP)","IC50 (EGFR L858R/C797S; IC50 L858R/C797S, 100 μM ATP)","IC50 (EGFR wildtype; IC50 WT, 100 μM ATP)",Structure (SMILES)
–,–,–,–,–,–,–,–,–,–,2.4 nM,1.1 nM,20.4 nM,3.9 nM,90.3 nM,–,–,–,–,–,"CC(C)(O)c1ccc(-c2cnc(Nc3ccnc(-c4cnn(S(=O)(=O)C5CC5)c4)n3)cc2NC2CCC(F)(F)CC2)nc1 [Example 175, 2-(6′-((2-(1-(Cyclopropylsulfonyl)-1H-pyrazol-4-yl)pyrimidin-4-yl)amino)-4′-((4,4-difluorocyclohexyl)amino)-[2,3′-bipyridin]-5-yl)propan-2-ol]"
–,–,–,–,–,–,–,–,–,–,4.8 nM,2.5 nM,15.2 nM,10.7 nM,53.5 nM,9.7 nM,11.3 nM,18.7 nM,179 nM,> 10000 nM,"CC(F)(F)c1ccc(-c2cnc(Nc3ccnc(-c4cnn(S(=O)(=O)C5CC5)c4)n3)cc2N[C@H]2CC[C@@H](C(C)(C)O)CC2)nc1 [Example 242, 2-((1s,4s)-4-((6′-((2-(1-(Cyclopropylsulfonyl)-1H-pyrazol-4-yl)pyrimidin-4-yl)amino)-5-(1,1-difluoroethyl)-[2,3′-bipyridin]-4′-yl)amino)cyclohexyl)propan-2-ol]"
–,–,–,–,–,–,–,–,–,–,–,–,–,–,–,0.1 nM,0.1 nM,0.2 nM,1.2 nM,323 nM,"CN(C)C[C@H]1CC[C@@H](Nc2cc(Nc3ccnc(-c4cnn(S(=O)(=O)C5CC5)c4)n3)ncc2-c2ccc(S(C)(=O)=O)cn2)CC1 [Example 159, N^6′-(2-(1-(Cyclopropylsulfonyl)-1H-pyrazol-4-yl)pyrimidin-4-yl)-N^4′-((1s,4s)-4-((dimethylamino)methyl)cyclohexyl)-5-(methylsulfonyl)-[2,3′-bipyridine]-4′,6′-diamine]"
–,–,–,–,–,–,–,–,–,–,0.2 nM,0.1 nM,0.1 nM,0.1 nM,0.3 nM,0.2 nM,0.1 nM,0.2 nM,0.8 nM,206 nM,"CN1CC(Oc2ccc(-c3cnc(Nc4ccnc(-c5cnn(S(=O)(=O)C6CC6)c5)n4)cc3N[C@H]3CC[C@@](C)(O)CC3)nc2)C1 [Example 289, (1s,4s)-4-((6′-((2-(1-(Cyclopropylsulfonyl)-1H-pyrazol-4-yl)pyrimidin-4-yl)amino)-5-((1-methylazetidin-3-yl)oxy)-[2,3′-bipyridin]-4′-yl)amino)-1-methylcyclohexan-1-ol]"
4.9 nM,0.4 nM,2.2 nM,31.1 nM,> 10000 nM,0.4 nM,0.1 nM,–,–,15.3 nM,–,–,–,–,–,–,–,–,–,–,"CC(C)(O)c1ccc(-c2cnc(Nc3ccnc(-c4cnn(S(=O)(=O)C5CC5)c4)n3)cc2N[C@H]2CC[C@@H](C(C)(C)O)CC2)nn1 [Example 88, 2-(6-(6-((2-(1-(Cyclopropylsulfonyl)-1H-pyrazol-4-yl)pyrimidin-4-yl)amino)-4-(((1s,4s)-4-(2-hydroxypropan-2-yl)cyclohexyl)amino)pyridin-3-yl)pyridazin-3-yl)propan-2-ol]"
